Test results published in US10233195B2, “Anti-fibrotic pyridinones” (InterMune, Inc., priority 2014, dated 2019).

Key:
[1] = test system: TGF-b induced Endothelin-1 production; assay: ET-1 assay: inhibitory effect on TGF-b induced endothelin-1 production; assay type: cell-based; settings: Homo sapiens, Fibroblast; fibroblasts, stimulant (TGFb, serum, LPA etc), ET-1 in media by ELISA, 4-parameter fit
Procedure, shortened: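 Fibroblasts (primary human lung/dermal, HFL-1, 3T3) serum-starved 0-48 h, preincubated ~30 min with compound, then stimulated (TGFb, serum or LPA) for 16-48 h. Secreted ET-1 measured by ELISA; EC50 from 4-parameter logistic fit, with CC50 from ATPlite in the same wells.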

[2] = test system: Fibroblasts (primary human lung and dermal, HFL-1, 3T3 etc); assay: Cell proliferation assay (BrdU incorporation); assay type: cell-based; settings: HFL1, stimulant (LPA, TGFb, serum etc), 50% inhibition of the increase of BrdU incorporation
Method: Assay of Inhibitory Effect on Cell Proliferation (BrdU Incorporation)
Fibroblasts (primary human lung and dermal, HFL-1, 3T3 etc) were plated on a 96-well plate and serum starved for 24-48 hours. The media were then exchanged for media containing stimulants (LPA, TGFb, serum etc) and cultured further for 16-24 hours before BrdU addition. After culturing for another 8 hours, cells were washed with PBS and the amount of BrdU incorporated into the cells was assayed by absorbance at 450 nm using the Cell proliferation ELISA system (RPN250, Amersham LIFE SCIENCE). The difference between the amount of BrdU incorporated in the stimulant-added well and the amount of BrdU incorporated in the well containing no stimulant represented the amount of BrdU incorporation accelerated by stimulant. The increase of BrdU incorporation without the addition of test compounds was set as 100% and the concentration of compound with 50% inhibition in the increase of BrdU incorporation (IC50 value) was determined. The test compounds were added 0-30 min before stimulant addition.
Compounds of some embodiments were prepared according to synthetic methods described herein and assay data obtained for IC50 for BrdU inhibition. The assay data obtained is presented in Table 3, in which A=less than 50 μM, B=greater than or equal to 50 μM and less than or equal to 200 μM; and C=greater than 200 μM.

Row | Structure (SMILES) | EC50 [1] [µM] | IC50 [2] [µM]
1 | Cn1cc(-c2cn(-c3ccc(OC(F)(F)F)cc3)c(=O)cc2NCc2c(F)cccc2F)cn1 [Compound 133] | 50 to 200 | 50 to 200
2 | COc1ccc(CNc2cc(=O)n(-c3ccc(OC(F)(F)F)cc3)cc2-c2cnn(C)c2)cc1 [Compound 134] | < 50 | < 50
3 | Cn1cc(-c2cn(-c3ccc(OC(F)(F)F)cc3)c(=O)cc2Oc2ccccc2)cn1 [Compound 153] | < 50 | < 50
4 | CCOc1ccc(Oc2cc(=O)n(-c3ccc(OC(F)(F)F)cc3)cc2-c2cnn(C)c2)cc1C#N [Compound 157] | < 50 | > 200
5 | Cn1cc(-c2cn(-c3ccc(OC(F)(F)F)cc3)c(=O)cc2NCc2cccnc2)cn1 [Compound 160] | 50 to 200 | < 50
6 | Cn1cc(-c2cn(-c3ccc(OC(F)(F)F)cc3)c(=O)cc2NCc2ccccn2)cn1 [Compound 161] | < 50 | < 50
7 | CCOc1ccc(-n2cc(-c3cnn(C)c3)c(OC)cc2=O)c(C)c1 [Compound 162] | < 50 | < 50
8 | CCOc1ccc(-n2cc(-c3ccc(F)cc3)c(C)cc2=O)c(C)c1 [Compound 175] | 50 to 200 | < 50
9 | COc1cc(-n2cc(-c3ccc(F)cc3)c(C)cc2=O)cc(OC)c1OC [Compound 180] | 50 to 200 | < 50
10 | Cc1cc(=O)n(-c2cccc3c2OCO3)cc1-c1ccc(F)cc1 [Compound 184] | 50 to 200 | < 50
11 | Cc1cc(=O)n(-c2cccc3c2OCCO3)cc1-c1ccc(F)cc1 [Compound 185] | 50 to 200 | < 50
12 | Cc1cc(=O)n(-c2cccc(NC(N)=O)c2)cc1-c1ccc(F)cc1 [Compound 188] | < 50 | < 50
13 | Cc1cc(=O)n(-c2cccc(C(N)=O)c2)cc1-c1ccc(F)cc1 [Compound 189] | > 200 | > 200
14 | Cc1cc(=O)n(-c2ccc(OC(F)(F)F)cc2)cc1-c1cccc(F)c1 [Compound 192] | < 50 | < 50
15 | Cc1cc(=O)n(-c2ccc(OC(F)(F)F)cc2)cc1-c1ccc(F)c(Cl)c1 [Compound 195] | < 50 | < 50
16 | Cc1cc(=O)n(-c2ccc(OC(F)(F)F)cc2)cc1-c1ccc(F)c(F)c1 [Compound 196] | 50 to 200 | < 50
17 | Cc1cc(=O)n(-c2ccc(OC(F)(F)F)cc2)cc1-c1ccc(Cl)c(F)c1 [Compound 198] | 50 to 200 | < 50
18 | Cc1cc(=O)n(-c2ccc(OC(F)(F)F)cc2)cc1-c1ccc2c(c1)OCCO2 [Compound 201] | 50 to 200 | < 50
19 | Cc1cc(=O)n(-c2ccc(OC(F)(F)F)cc2)cc1-c1ccc2c(c1)OCO2 [Compound 202] | 50 to 200 | < 50
20 | Cc1cc(=O)n(-c2ccc(OC(F)(F)F)cc2)cc1-c1cccc2c1OCO2 [Compound 203] | < 50 | < 50
21 | Cc1cc(=O)n(-c2ccc(OC(F)(F)F)cc2)cc1-c1cccc2c1OCCO2 [Compound 204] | < 50 | < 50

Row | Structure (SMILES) | EC50 [1] [µM] | IC50 [2] [µM]
22 | Cc1cc(=O)n(-c2ccc(OC(F)(F)F)cc2)cc1-c1ccc(-c2cncs2)cc1 [Compound 206] | 50 to 200 | < 50
23 | Cc1cc(=O)n(-c2ccc(OC(F)(F)F)cc2)cc1-c1cccc2c1OC(C)(C)O2 [Compound 207] | 50 to 200 | < 50
24 | Cc1cc(=O)n(-c2ccc(OC(F)(F)F)cc2)cc1-c1ccc2c(c1)OC(F)(F)O2 [Compound 208] | 50 to 200 | 50 to 200
25 | Cc1cc(=O)n(-c2ccc(OC(F)(F)F)cc2)cc1-c1ccc2c(c1)NC(=O)CO2 [Compound 209] | < 50 | < 50
26 | Cc1cc(=O)n(-c2ccc(OC(F)(F)F)cc2)cc1-c1ccc2c(c1)N(C)C(=O)CO2 [Compound 210] | < 50 | > 200
27 | Cc1ccc(-n2cc(-c3ccc(F)cc3)c(C)cc2=O)cc1 [Compound 216] | 50 to 200 | < 50
28 | Cc1cc(=O)n(-c2ccc(OC(F)(F)F)cc2)cc1-c1cn[nH]c1 [Compound 218] | < 50 | < 50
29 | CCOc1ccc(-n2cc(-c3cn[nH]c3)c(C)cc2=O)c(C)c1 [Compound 219] | 50 to 200 | > 200
30 | Cc1cc(=O)n(-c2ccc(Cl)cc2C)cc1-c1cnn(C)c1 [Compound 229] | 50 to 200 | < 50
31 | Cc1cc(=O)n(-c2ccc(OC(C)C)cc2C)cc1-c1cnn(C)c1 [Compound 234] | > 200 | > 200
32 | Cc1cc(=O)n(-c2ccc(OC(F)(F)F)cc2)cc1-c1c(C)nn(C)c1C [Compound 237] | 50 to 200 | < 50
33 | Cc1cc(=O)n(-c2ccc(OC(F)(F)F)cc2)cc1-c1cn(C)nc1C(F)(F)F [Compound 238] | 50 to 200 | < 50
34 | Cc1cc(=O)n(-c2ccc(OC(F)(F)F)cc2)cc1-c1ccnnc1 [Compound 243] | 50 to 200 | > 200
35 | Cc1cc(=O)n(-c2ccc(OC(F)(F)F)cc2)cc1-c1ccc2scnc2c1 [Compound 251] | < 50 | < 50
36 | Cc1cc(=O)n(-c2ccc(OC(F)(F)F)cc2)cc1-c1ccc2nccn2c1 [Compound 252] | 50 to 200 | 50 to 200
37 | Cc1cc(=O)n(-c2ccc(OC(F)(F)F)cc2)cc1-c1ccc2ocnc2c1 [Compound 254] | < 50 | < 50
38 | Cc1cc(=O)n(-c2ccc(OC(F)(F)F)cc2)cc1-c1ccc2ccn(C)c2c1 [Compound 258] | < 50 | < 50
39 | Cc1cc(=O)n(-c2ccc(OC(F)(F)F)cc2)cc1-c1ccc2nonc2c1 [Compound 259] | 50 to 200 | < 50
40 | Cc1cc(=O)n(-c2ccc(OC(F)(F)F)cc2)cc1-c1ccc2ncsc2c1 [Compound 260] | 50 to 200 | < 50
41 | Cc1cc(=O)n(-c2ccc(OC(F)(F)F)cc2)cc1-c1cccc2scnc12 [Compound 261] | > 200 | < 50
42 | Cc1cc(=O)n(-c2ccc(OC(F)(F)F)cc2)cc1-c1cscn1 [Compound 262] | 50 to 200 | < 50

Row | Structure (SMILES) | EC50 [1] [µM] | IC50 [2] [µM]
43 | Cc1cc(=O)n(-c2ccc(OC(F)(F)F)cc2)cc1-c1cccc2ncsc12 [Compound 263] | < 50 | < 50
44 | COc1cccc(-n2cc(C(F)(F)F)ccc2=O)c1 [Compound 276] | > 200 | > 200
45 | CCOc1ccc(-n2cc(C(F)(F)F)ccc2=O)c(C)c1 [Compound 278] | 50 to 200 | 50 to 200
46 | Cc1ccc(=O)n(-c2cc(F)c(F)c(F)c2)c1 [Compound 282] | > 200 | > 200
47 | CC(C)c1ccc(=O)n(-c2ccccc2)c1 [Compound 285] | > 200 | > 200
48 | O=c1ccc(-c2ccc(F)cc2)cn1-c1ccccc1F [Compound 290] | 50 to 200 | > 200
49 | O=c1ccc(-c2ccccc2)cn1-c1cncnc1 [Compound 300] | > 200 | > 200
50 | CC(C)Oc1ccc(-n2cc(-c3cccc(Cl)c3)ccc2=O)cc1 [Compound 316] | < 50 | < 50
51 | Cc1ccc(=S)n(-c2ccc(OC(F)(F)F)cc2)c1 [Compound 333] | 50 to 200 | > 200
52 | Cc1cc(-c2ccc(F)cc2)cn(-c2ccc(OC(F)(F)F)cc2)c1=O [Compound 350] | 50 to 200 | 50 to 200
53 | Cc1cc(-c2ccc(F)cc2)cn(-c2ccccc2)c1=O [Compound 351] | < 50 | 50 to 200
54 | Cc1cc(-c2cnn(C)c2)cn(-c2ccccc2)c1=O [Compound 353] | 50 to 200 | > 200
55 | Cc1ccc(=O)n(-c2ccc(OC(F)(F)F)cc2)n1 [Compound 360] | < 50 | 50 to 200
56 | O=c1ccc(-c2cn[nH]c2)cn1-c1ccc(OC(F)(F)F)cc1 [Compound 374] | < 50 | 50 to 200
57 | CCOc1ccc(-n2cc(-c3cn[nH]c3)ccc2=O)c(C)c1 [Compound 376] | < 50 | > 200
58 | Cc1n[nH]c(C)c1-c1ccc(=O)n(-c2ccc(OC(F)(F)F)cc2)c1 [Compound 383] | 50 to 200 | 50 to 200
59 | O=c1ccc(-c2cnn(Cc3ccccc3)c2)cn1-c1ccccc1 [Compound 385] | 50 to 200 | < 50
60 | CCOc1ccc(-n2cc(-c3c(C)n[nH]c3C)ccc2=O)c(C)c1 [Compound 387] | 50 to 200 | 50 to 200
61 | Cc1c(-c2ccc(=O)n(-c3ccc(OC(F)(F)F)cc3)c2)cnn1C [Compound 391] | < 50 | 50 to 200
62 | Cn1cc(-c2cn(-c3ccc(OC(F)(F)F)cc3)c(=O)c3c2ccn3C)cn1 [Compound 394] | < 50 | < 50
63 | Cn1cc(-c2cn(-c3ccc(C#N)cc3)c(=O)c3cccnc23)cn1 [Compound 395] | 50 to 200 | 50 to 200
